Results reported in patent US11746116B2, “Antibiotic resistance breakers” (KING'S COLLEGE LONDON, priority 2017, dated 2023).
≈ marks a conversion by molar mass, not a printed value. Like-named read-outs stand apart in the source and are kept apart here.

What was measured:
SA6 = test: MIC, extended Gram-positive panel; format: cell-based, S. aureus
VSE775 = test: MIC, microdilution broth method; format: cell-based, Enterococcus faecalis; parameters: MIC, VSE775: unit not given beside the values
M6 = test: MIC, microdilution broth method; format: cell-based
PA13437 = test: MIC, microdilution broth method; format: cell-based; conditions: for MIC: PA13437
SA10 = test: MIC, extended Gram-positive panel; format: cell-based, S. aureus
SA2 = test: MIC, extended Gram-positive panel; format: cell-based, S. aureus
MSSA 9144 strain = test: Reserpine (growth) assay for efflux; format: cell-based, Staphylococcus aureus; conditions: multidrug-resistant MSSA 9144 strain; compound 0.25×MIC, reserpine 10 μg/mL
AYE = test: MIC, microdilution broth method; format: cell-based, Acinetobacter baumannii
EF2 = test: MIC, extended Gram-positive panel; format: cell-based, E.faecium
SA4 = test: MIC, extended Gram-positive panel; format: cell-based, S. aureus
VRE12201 = test: MIC, microdilution broth method; format: cell-based, Enterococcus faecalis
EMRSA15 = test: MIC, microdilution broth method; format: cell-based, Staphylococcus aureus
KP13368 = test: MIC, microdilution broth method; format: cell-based
SA7 = test: MIC, extended Gram-positive panel; format: cell-based, S. aureus
EMRSA16 = test: MIC, microdilution broth method; format: cell-based, Staphylococcus aureus
Ab17978 = test: MIC, microdilution broth method; format: cell-based
EF1 = test: MIC, extended Gram-positive panel; format: cell-based, E.faecalis
SA1 = test: MIC, extended Gram-positive panel; format: cell-based, S. aureus
SE1 = format: cell-based, S. epidermidis
SA9 = format: cell-based, S. aureus
SA5 = format: cell-based, S. aureus
VRE12204 = test: MIC, microdilution broth method; format: cell-based, Enterococcus faecium; conditions: in µg/mL; for MIC: VRE12204
SH1 = test: MIC, extended Gram-positive panel; format: cell-based, S. haemolyticus
MSSA9144 = test: MIC, microdilution broth method; format: cell-based, Staphylococcus aureus
EMRSA 15 strain = test: Reserpine (growth) assay for efflux; format: cell-based, Staphylococcus aureus; conditions: multidrug-resistant EMRSA 15 strain; compound 0.25×MIC, reserpine 10 μg/mL
SA3 = format: cell-based, S. aureus
PA01 = test: MIC, microdilution broth method; format: cell-based, Pseudomonas aeruginosa
SA8 = test: MIC, extended Gram-positive panel; format: cell-based, S. aureus
EC12923 = test: MIC, microdilution broth method; format: cell-based
[1] = system: multidrug resistant strains; test: Reserpine growth assay in several multidrug resistant strains (FIG. 27); format: cell-based; conditions: compared to ML-83-009 or levofloxacin
Procedure: Reserpine was added at a final concentration of 10 μg/mL (made up at 40 μg/mL in TSB, 50 μL per well). The bacteria were added at an OD of 0.01 in TSB (100 μL/well). The plate was a normal clear plate as used for MICs. OD was read every 30 minutes for 9 hours (the literature states 7 hours, but this is strain-dependent).

[2] = system: extended panel of MDR strains with known multiple target mutations; format: cell-based
[3] = KP13368, Normal (no PMBN), in µg/mL
[4] = Ab17978, Normal (no PMBN), in µg/mL
[5] = PA01, Normal (no PMBN), in µg/mL
[6] = ESKAPE panel, Gram-negative, in µg/mL
[7] = ESKAPE panel, Gram-positive, in µg/mL

CCn1cc(C(=O)O)c(=O)c2cc(F)c(N3CCN(Cc4cccc5ccccc45)CC3)cc21 [ML-77-021]
MIC (SA6; S. aureus SA6, gyrA, 84:S => V, grlA, 80:S => F): 2 µg/mL (≈ 4.35 µM) | Fold decrease (SA6; SA6, MIC of parent (CIP or NOR) versus ARB-linked derivative): ≥64 fold | MIC (VSE775; VSE775, in µg/mL): 2 | MIC (M6; M6, +PMBN, in µg/mL): 1-4 | MIC (M6; M6, Normal (no PMBN), in µg/mL): 32 | MIC (PA13437; +PMBN): > 32 µg/mL | MIC (PA13437; Normal (no PMBN)): > 32 µg/mL | MIC (SA10; S. aureus SA10, gyrA, 84:S => L, grlA, 80:S => F): 2 µg/mL (≈ 4.35 µM) | Fold decrease (SA10; SA10, MIC of parent (CIP or NOR) versus ARB-linked derivative): 64 fold | MIC (SA2; S. aureus SA2): 1 µg/mL (≈ 2.18 µM) | Fold decrease (SA2; SA2, MIC of parent (CIP or NOR) versus ARB-linked derivative): 8-64 fold | efflux by the strain (reserpine assay) (MSSA 9144 strain): not effluxed | MIC (AYE; AYE, +PMBN, in µg/mL): >32 | MIC (AYE; AYE, Normal (no PMBN), in µg/mL): >32 | MIC (EF2; E.faecium EF2, in µg/mL): 2-4 | Fold decrease (EF2; EF2, MIC of parent (CIP or NOR) versus ARB-linked derivative): ≥32 fold | MIC (SA4; S. aureus SA4, gyrA, 84:S => L, grlA, 80:S => F): 2 µg/mL (≈ 4.35 µM) | Fold decrease (SA4; SA4, MIC of parent (CIP or NOR) versus ARB-linked derivative): 32 fold | MIC (VRE12201; VRE12201, in µg/mL): 4 | MIC (EMRSA15; EMRSA15, in µg/mL): 2 | MIC (KP13368; KP13368, +PMBN, in µg/mL): 4-8 | MIC (KP13368; [3]): >32 | MIC (SA7; S. aureus SA7, gyrA, 84:S => L, grlA, 80:S => F): 2 µg/mL (≈ 4.35 µM) | Fold decrease (SA7; SA7, MIC of parent (CIP or NOR) versus ARB-linked derivative): ≥64 fold | MIC (EMRSA16; EMRSA16, in µg/mL): 2 | MIC (Ab17978; Ab17978, +PMBN, in µg/mL): 0.5 | MIC (Ab17978; [4]): 32 | MIC (EF1; E.faecalis EF1): 4 µg/mL (≈ 8.7 µM) | Fold decrease (EF1; EF1, MIC of parent (CIP or NOR) versus ARB-linked derivative): ≥32 fold | MIC (SA1; S. aureus SA1, gyrA, 84:S => L, grlA, 80:S => F): 4 µg/mL (≈ 8.7 µM) | Fold decrease (SA1; SA1, MIC of parent (CIP or NOR) versus ARB-linked derivative): ≥32 fold | Fold decrease (SE1): 1-4 fold | MIC (SE1; in µg/mL): 1 | MIC (SA9; S. aureus SA9, gyrA, 84:S => L, grlA, 80:S => F): 2 µg/mL (≈ 4.35 µM) | Fold decrease (SA9; SA9, MIC of parent (CIP or NOR) versus ARB-linked derivative): ≥64 fold | Fold decrease (SA5): ≥64 fold | MIC (SA5): 2 µg/mL (≈ 4.35 µM) | MIC (VRE12204): 2 | MIC (SH1; S. haemolyticus SH1): 4 µg/mL (≈ 8.7 µM) | Fold decrease (SH1; SH1, MIC of parent (CIP or NOR) versus ARB-linked derivative): 32 fold | MIC (MSSA9144; MSSA9144, in µg/mL): 1 | efflux by the strain (reserpine assay) (EMRSA 15 strain): not effluxed | Fold decrease (SA3): 32 fold | MIC (SA3): 2 µg/mL (≈ 4.35 µM) | MIC (PA01; PA01, +PMBN, in µg/mL): 0.06-0.25 | MIC (PA01; [5]): >32 | MIC (SA8; S. aureus SA8, gyrA, 84:S => L, grlA, 80:S => F): 2 µg/mL (≈ 4.35 µM) | Fold decrease (SA8; SA8, MIC of parent (CIP or NOR) versus ARB-linked derivative): 64 fold

CCn1cc(C(=O)O)c(=O)c2cc(F)c(N3CCNCC3)cc21 [Norfloxacin, norfloxacin, reference compound]
MIC (VSE775; VSE775, in µg/mL): 8 | MIC (M6; M6, Normal (no PMBN), in µg/mL): 0.25 | efflux by the strain (reserpine assay) (MSSA 9144 strain): effluxed | MIC (VRE12201; VRE12201, in µg/mL): 4 | MIC (KP13368; [3]): 4 | MIC (Ab17978; [4]): 4 | MIC (VRE12204): 4 | MIC (MSSA9144; MSSA9144, in µg/mL): 2 | efflux by the strain (reserpine assay) (EMRSA 15 strain): effluxed | MIC (PA01; [5]): 2

C[C@H]1COc2c(N3CC[C@@H](Nc4ncccn4)C3)c(F)cc3c(=O)c(C(=O)O)cn1c23 [KSN-L22]
MIC, VSE775 (VSE775; ESKAPE panel, Gram-positive): 0.06 | MIC (VSE775; Enterococcus faecalis, Enterococcus (VRE775), Gram-Positive, read-out: MIC): 0.06 µg/mL (≈ 0.141 µM) | MIC, M6 (M6; [6]): 1 | MIC (M6; Klebsiella pneumoniae (M6), Gram-Negative, read-out: MIC): 1 µg/mL (≈ 2.35 µM) | MIC, PA13437 (PA13437; ESKAPE panel, Gram-negative): > 32 µg/mL | MIC (AYE; Acinetobacter baumannii (AYE), Gram-Negative, read-out: MIC): 4 µg/mL (≈ 9.4 µM) | MIC, AYE (AYE; [6]): 4 | MIC, VRE12201 (VRE12201; [7]): 0.06 | MIC (VRE12201; Enterococcus faecalis, Enterococcus (VRE12201), Gram-Positive, read-out: MIC): 0.06 µg/mL (≈ 0.141 µM) | MIC, EMRSA15 (EMRSA15; EMRSA15 (Table 16, role of the terminal pyrimidine ring), in µg/mL): 0.5-1 | MIC, EMRSA15 (EMRSA15; [7]): 0.5 | MIC (EMRSA15; Staphylococcus aureus, Staphylococcus aureus (EMRSA15), Gram-Positive (Table 14), read-out: MIC): 0.5 µg/mL (≈ 1.18 µM) | MIC (EMRSA15; Staphylococcus aureus, Staphylococcus aureus (EMRSA15), Table 12, read-out: MIC): 0.5 to 1 µg/mL (≈ 1.18 to 2.35 µM) | MIC, KP13368 (KP13368; ESKAPE panel, Gram-negative): 4 µg/mL (≈ 9.4 µM) | MIC (KP13368; Klebsiella pneumoniae (KP13368), Gram-Negative, read-out: MIC): 4 µg/mL (≈ 9.4 µM) | MIC, EC12923 (EC12923; [6]): 0.5 | MIC (EC12923; Escherichia coli (EC12923), Gram-Negative, read-out: MIC): 0.5 µg/mL (≈ 1.18 µM) | MIC, EMRSA16 (EMRSA16; EMRSA16 (Table 16, role of the terminal pyrimidine ring), in µg/mL): 1 | MIC, EMRSA16 (EMRSA16; [7]): 1 | MIC (EMRSA16; S. aureus EMRSA16, gyrA, 84:S => L, grlA, 80:S => F (Table 11)): 1 | MIC (EMRSA16; Staphylococcus aureus (EMRSA16), Gram-Positive (Table 14)): 1 µg/mL (≈ 2.35 µM) | MIC (EMRSA16; Staphylococcus aureus (EMRSA16), Table 12, read-out: MIC): 1 µg/mL (≈ 2.35 µM) | MIC (Ab17978; Acinetobacter baumannii): 0.125 µg/mL (≈ 0.294 µM) | MIC, Ab17978 (Ab17978; [6]): 0.125 | efflux from the bacteria (reserpine growth assay) [1]: reduced efflux | MIC, VRE12204 (VRE12204; ESKAPE panel, Gram-positive): 1 | MIC, MSSA9144 (MSSA9144; [7]): ≤0.03 | MIC (MSSA9144; Staphylococcus aureus (MSSA9144), Gram-Positive, read-out: MIC): ≤ 0.03 µg/mL | MIC ([2]; E. faecalis EF 602): 0.25 µg/mL (≈ 0.588 µM) | MIC ([2]; E. faecium EF 205): 0.12 µg/mL (≈ 0.282 µM) | MIC ([2]; S. aureus SA 046, gyrA, 84:S => L, grlA, 80:S => F): 1 µg/mL (≈ 2.35 µM) | MIC ([2]; S. aureus SA 105, gyrA, 84:S => L, grlA, 80:S => F): 1 µg/mL (≈ 2.35 µM) | MIC ([2]; S. aureus SA 215, gyrA, 84:S => L, grlA, 80:S => F): 1 µg/mL (≈ 2.35 µM) | MIC ([2]; S. aureus SA 275, gyrA, 84:S => V, grlA, 80:S => F): 1 µg/mL (≈ 2.35 µM) | MIC ([2]; S. aureus SA 318, gyrA, 84:S => L, grlA, 80:S => F): 1 µg/mL (≈ 2.35 µM) | MIC ([2]; S. aureus SA 388, gyrA, 84:S => L, grlA, 80:S => F): 1 µg/mL (≈ 2.35 µM) | MIC, PA01 (PA01; [6]): 4 | MIC (PA01; Pseudomonas aeruginosa (PA01), Gram-Negative, read-out: MIC): 4 µg/mL (≈ 9.4 µM)
